The subject of the assay is endogenous cellular STAT1 (phosphorylated at Tyr701) in NCI-H1373 cells. Briefly: Phospho-STAT1 (Tyr701) LANCE Ultra TR-FRET Detection Assay. The format is cell-based. As to conditions: Homo sapiens, NCI-H1373, 48 h, phospho-STAT1 (Tyr701) induction, read-out: NH1373 pSTAT1 EC50.

Regarding `Nc1nc(-c2cc3ccn(CCC[C@@H]4CCCN4c4cn[nH]c(=O)c4C(F)(F)F)c(=O)c3cc2F)ncc1C(F)(F)F` [Example 121, (S)-6-(4-amino-5-(trifluoromethyl)pyrimidin-2-yl)-7-fluoro-2-(3-(1-(6-oxo-5-(trifluoromethyl)-1,6-dihydropyridazin-4-yl)pyrrolidin-2-yl)propyl)isoquinolin-1(2H)-one], the EC50 (in general, the concentration at which the effect is half-maximal) amounted to 5.16 nM.
On to `COc1cnc(-c2cc3ccn(CCC[C@H](C)Nc4cn[nH]c(=O)c4C(F)(F)F)c(=O)c3cc2F)nc1N1CC(O)C1` [Example 207], for which the 50% effective concentration (EC50) was 157 nM.
With `Nc1nc(-c2cc3ccn(CCC[C@H](COC(F)F)Nc4cn[nH]c(=O)c4C(F)(F)F)c(=O)c3c(F)c2F)ncc1OC(F)F` [Example 397, (R)-6-(4-amino-5-(difluoromethoxy)pyrimidin-2-yl)-2-(5-(difluoromethoxy)-4-((6-oxo-5-(trifluoromethyl)-1,6-dihydropyridazin-4-yl)amino)pentyl)-7,8-difluoroisoquinolin-1(2H)-one], the EC50 was 10.1 nM.
Take `C[C@@H](CCCn1ccc2cc(-c3cnc(C(F)(F)F)c(N)n3)c(F)cc2c1=O)Nc1cn[nH]c(=O)c1C(F)(F)F` [Example 316, (S)-6-(6-amino-5-(trifluoromethyl)pyrazin-2-yl)-7-fluoro-2-(4-((6-oxo-5-(trifluoromethyl)-1,6-dihydropyridazin-4-yl)amino)pentyl)isoquinolin-1(2H)-one]: the concentration for a half-maximal effect (EC50) turned out to be 15.5 nM.
For the compound `C[C@@H](CCCn1ccc2cc(-c3ncc(N4CC5(COC5)C4)cn3)c(F)cc2c1=O)Nc1cn[nH]c(=O)c1C(F)(F)F` [Example 99, (S)-6-(5-(2-oxa-6-azaspiro[3.3]heptan-6-yl)pyrimidin-2-yl)-7-fluoro-2-(4-((6-oxo-5-(trifluoromethyl)-1,6-dihydropyridazin-4-yl)amino)pentyl)isoquinolin-1(2H)-one], the EC50 is 1280 nM.
With `C[C@@H](CCCn1ccc2cc(-c3nc(N)c(C(F)(F)F)cc3C#N)c(F)cc2c1=O)Nc1cn[nH]c(=O)c1C(F)(F)F` [Example 290, (S)-6-amino-2-(7-fluoro-1-oxo-2-(4-((6-oxo-5-(trifluoromethyl)-1,6-dihydropyridazin-4-yl)amino)pentyl)-1,2-dihydroisoquinolin-6-yl)-5-(trifluoromethyl)nicotinonitrile], the EC50 was determined as 21.3 nM.
For `CC[C@@H](CCCn1cnc2cc(-c3ncc(OC(F)F)c(N)n3)c(F)cc2c1=O)Nc1cn[nH]c(=O)c1C(F)(F)F` [Example 364, (S)-7-(4-amino-5-(difluoromethoxy)pyrimidin-2-yl)-6-fluoro-3-(4-((6-oxo-5-(trifluoromethyl)-1,6-dihydropyridazin-4-yl)amino)hexyl)quinazolin-4(3H)-one], the EC50 was 96.4 nM.
In the case of `COc1cnc(-c2cc3ccn(C[C@@H]4CCC[C@H](Nc5cn[nH]c(=O)c5C(F)(F)F)C4)c(=O)c3c(F)c2F)nc1N` [Example 278, 6-(4-amino-5-methoxypyrimidin-2-yl)-7,8-difluoro-2-(((1R,3S)-3-((6-oxo-5-(trifluoromethyl)-1,6-dihydropyridazin-4-yl)amino)cyclohexyl)methyl)isoquinolin-1(2H)-one], the EC50 came to 4.38 nM.
For the compound `CC[C@@H](CCCn1cnc2cc(-c3ncc(Cl)cn3)c(F)cc2c1=O)Nc1cn[nH]c(=O)c1C(F)(F)F` [Example 157, 7-(5-chloropyrimidin-2-yl)-6-fluoro-3-[(4S)-4-[[6-oxo-5-(trifluoromethyl)-1H-pyridazin-4-yl]amino]hexyl]quinazolin-4-one], the half-maximal effective concentration (EC50) came to 22.7 nM.
On to `C[C@@H](CCCn1cnc2cc(-c3ccc(C(F)(F)F)c(N)n3)c(F)cc2c1=O)Nc1cn[nH]c(=O)c1C(F)(F)F` [Example 212], for which the EC50 was determined as 36.6 nM.
Next, `O=c1[nH]ncc(N[C@H](CCCn2ccc3cc(-c4ncc(C(F)(F)F)cn4)c(F)c(F)c3c2=O)COC(F)F)c1C(F)(F)F` [Example 375, (R)-2-(5-(difluoromethoxy)-4-((6-oxo-5-(trifluoromethyl)-1,6-dihydropyridazin-4-yl)amino)pentyl)-7,8-difluoro-6-(5-(trifluoromethyl)pyrimidin-2-yl)isoquinolin-1(2H)-one]: 3.84 nM.
`C[C@@H](CCCn1ccc2cc(-c3nc(C(F)(F)F)co3)c(F)cc2c1=O)Nc1cn[nH]c(=O)c1C(F)(F)F` [Example 323, (S)-7-fluoro-2-(4-((6-oxo-5-(trifluoromethyl)-1,6-dihydropyridazin-4-yl)amino)pentyl)-6-(4-(trifluoromethyl)oxazol-2-yl)isoquinolin-1(2H)-one]: the EC50 was 260 nM.
In the case of `O=c1[nH]ncc(N2CC[C@H]2CCCn2ccc3cc(-c4ncc(C(F)(F)F)cn4)c(F)cc3c2=O)c1C(F)(F)F` (single isomer, unassigned) [Example 149], the concentration for a half-maximal effect (EC50) stood at 3.98 nM.
Turning to `C[C@H](Nc1cn[nH]c(=O)c1C(F)(F)F)[C@@H]1C[C@H]1Cn1ccc2cc(-c3ncc(C(F)(F)F)cn3)c(F)cc2c1=O` [Example 68, 7-fluoro-2-[[(1R,2R)-2-[(1S)-1-[[6-oxo-5-(trifluoromethyl)-1H-pyridazin-4-yl]amino]ethyl]cyclopropyl]methyl]-6-[5-(trifluoromethyl)pyrimidin-2-yl]isoquinolin-1-one], the EC50 came to 10000 nM.
With `C[C@@H]1C[C@@H](CCCn2ccc3cc(-c4ncc(C(F)(F)F)cn4)c(F)cc3c2=O)N(c2cn[nH]c(=O)c2C(F)(F)F)C1` [Example 174, 7-fluoro-2-(3-((2R,4R)-4-methyl-1-(6-oxo-5-(trifluoromethyl)-1,6-dihydropyridazin-4-yl)pyrrolidin-2-yl)propyl)-6-(5-(trifluoromethyl)pyrimidin-2-yl)isoquinolin-1(2H)-one], the 50% effective concentration (EC50) came out at 287 nM.
`Cc1cnc(-c2cc3ncn(CCC[C@H](C)Nc4cn[nH]c(=O)c4C(F)(F)F)c(=O)c3cc2F)nc1N` [Example 78, (S)-7-(4-amino-5-methylpyrimidin-2-yl)-6-fluoro-3-(4-((6-oxo-5-(trifluoromethyl)-1,6-dihydropyridazin-4-yl)amino)pentyl)quinazolin-4(3H)-one]: the EC50 worked out at 317 nM.
Next, `C[C@@H](CCCn1cnc2cc(-c3cnc(Cl)c(N)n3)c(F)cc2c1=O)Nc1cn[nH]c(=O)c1C(F)(F)F` [Example 352, (S)-7-(6-amino-5-chloropyrazin-2-yl)-6-fluoro-3-(4-((6-oxo-5-(trifluoromethyl)-1,6-dihydropyridazin-4-yl)amino)pentyl)quinazolin-4(3H)-one]: 64.4 nM; `COc1cnc(-c2cc3ccn(CCC[C@@H]4C[C@@H](C)CN4c4cn[nH]c(=O)c4C(F)(F)F)c(=O)c3cc2F)nc1N` [Example 175, 6-(4-amino-5-methoxypyrimidin-2-yl)-7-fluoro-2-[3-[(2R,4R)-4-methyl-1-[6-oxo-5-(trifluoromethyl)-1H-pyridazin-4-yl]pyrrolidin-2-yl]propyl]isoquinolin-1-one]: 57.5 nM.
In the case of `C[C@@H](CCCn1cnc2cc(-c3ncc(C(F)F)cn3)c(F)cc2c1=O)Nc1cn[nH]c(=O)c1C(F)(F)F` [Example 82, (S)-7-(5-(difluoromethyl)pyrimidin-2-yl)-6-fluoro-3-(4-((6-oxo-5-(trifluoromethyl)-1,6-dihydropyridazin-4-yl)amino)pentyl)quinazolin-4(3H)-one], the 50% effective concentration (EC50) was determined as 63.4 nM.
In the case of `Nc1nc(-c2cc3ncn(CCC[C@H](COC(F)F)Nc4cn[nH]c(=O)c4C(F)(F)F)c(=O)c3cc2F)ncc1Cl` [Example 426, (R)-7-(4-amino-5-chloropyrimidin-2-yl)-3-(5-(difluoromethoxy)-4-((6-oxo-5-(trifluoromethyl)-1,6-dihydropyridazin-4-yl)amino)pentyl)-6-fluoroquinazolin-4(3H)-one], the EC50 was 14.2 nM.
As to `O=c1[nH]ncc(N[C@H]2CCC[C@@H](Cn3cc(Br)c4cc(-c5ncc(C(F)(F)F)cn5)c(F)cc4c3=O)C2)c1C(F)(F)F` [Example 459, 4-bromo-7-fluoro-2-(((1R,3S)-3-((6-oxo-5-(trifluoromethyl)-1,6-dihydropyridazin-4-yl)amino)cyclohexyl)methyl)-6-(5-(trifluoromethyl)pyrimidin-2-yl)isoquinolin-1(2H)-one], the EC50 was 12.2 nM.
As to `CC[C@@H](CCCn1cnc2cc(-c3ccc(OC(F)F)cn3)c(F)cc2c1=O)Nc1cn[nH]c(=O)c1C(F)(F)F` [Example 340, (S)-7-(5-(difluoromethoxy)pyridin-2-yl)-6-fluoro-3-(4-((6-oxo-5-(trifluoromethyl)-1,6-dihydropyridazin-4-yl)amino)hexyl)quinazolin-4(3H)-one], the concentration for a half-maximal effect (EC50) amounted to 97.1 nM.
Take `C[C@@H](CCCn1ccc2cc(-c3ccc(C#N)c(C(F)(F)F)n3)c(F)cc2c1=O)Nc1cn[nH]c(=O)c1C(F)(F)F` [Example 295, (S)-6-(7-fluoro-1-oxo-2-(4-((6-oxo-5-(trifluoromethyl)-1,6-dihydropyridazin-4-yl)amino)pentyl)-1,2-dihydroisoquinolin-6-yl)-2-(trifluoromethyl)nicotinonitrile]: the EC50 turned out to be 2020 nM.
Next, `C[C@@H](CCCn1ccc2cc(-c3ncnc(N)n3)c(F)cc2c1=O)Nc1cn[nH]c(=O)c1C(F)(F)F` [Example 365, (S)-6-(4-amino-1,3,5-triazin-2-yl)-7-fluoro-2-(4-((6-oxo-5-(trifluoromethyl)-1,6-dihydropyridazin-4-yl)amino)pentyl)isoquinolin-1(2H)-one]: 55.8 nM; `Cc1cnc(-c2cc3ccn(CCC[C@H](C)Nc4cn[nH]c(=O)c4C(F)(F)F)c(=O)c3c(F)c2F)nc1N` [Example 77, (S)-6-(4-amino-5-methylpyrimidin-2-yl)-7,8-difluoro-2-(4-((6-oxo-5-(trifluoromethyl)-1,6-dihydropyridazin-4-yl)amino)pentyl)isoquinolin-1(2H)-one]: 13.5 nM; `O=c1[nH]ncc(N[C@H](CCCn2ccc3nc(-c4ccc(C(F)F)cn4)ccc3c2=O)COC(F)F)c1C(F)(F)F` [Example 408, (R)-6-(5-(difluoromethoxy)-4-((6-oxo-5-(trifluoromethyl)-1,6-dihydropyridazin-4-yl)amino)pentyl)-2-(5-(difluoromethyl)pyridin-2-yl)-1,6-naphthyridin-5(6H)-one]: 4.11 nM.

Values taken from patent US12459922B2 (Gilead Sciences, Inc., priority 2022, dated 2025).
